How the values were obtained:
[1] = system: G2C4 RNA (RNA, triplex) GGCCCC; experiment: DSC; settings: 100 mM NaCl; 10 mM sodium cacodylate pH 6.0; 300 μM ANP77, 300 μM RNA; triplex melting 38.1 to 41.5; derived from two Tm
[2] = system: G2C4 RNA (RNA, triplex) GGCCCC; experiment: ITC; settings: 100 mM NaCl; 10 mM sodium cacodylate pH 6.0, 25°C; one set of sites model
[3] = system: (G2C4)2 (RNA, repeat) GGCCCCGGCCCC; experiment: ITC; settings: 100 mM NaCl; 10 mM sodium cacodylate pH 6.0, 25°C; sequential binding sites model; site 1 of 2
[4] = system: (G2C4)2 (RNA, repeat) GGCCCCGGCCCC; experiment: circular dichroism; settings: 100 mM NaCl; 10 mM sodium cacodylate pH 7.0, room temperature; 2.5 μM RNA, 25 μM ANP77
[5] = system: RNA oligomer having five G2C4 repeats (RNA, repeat) GGCCCCGGCCCCGGCCCCGGCCCCGGCCCC; experiment: circular dichroism; settings: 100 mM NaCl; 10 mM sodium cacodylate pH 7.0, room temperature; 2.5 μM RNA, 25 μM ANP77
[6] = system: G2C4 RNA (RNA, triplex) GGCCCC; experiment: X-ray crystal structure; settings: 80 mM NaCl; 40 mM sodium cacodylate pH 6.0, 45% MPD, 12 mM spermine, 19°C; 1.1 Å
[7] = system: G2C4 RNA (RNA, triplex) GGCCCC; experiment: CSI-TOF mass spectrometry; settings: 250 mM ammonium acetate; water/methanol 8:2, -10°C spray; 20 μM RNA, 50 μM ANP77; complexes with double-stranded form

ΔTm1 (shift in Tm1) [1]: 3.4 °C
Kd [2]: 7.9 ± 1.0 µM
Kd [3]: 0.976 ± 0.377 µM
binding [4]: yes
binding [5]: yes
binding [6]: yes
binding [7]: yes
Structure (SMILES): NCCCNC(=O)C(Cc1ccc2ccc(N)nc2n1)Cc1ccc2ccc(N)nc2n1

— publication PMC11194091 (2024)
